Patent publication US4244956A, “Method of treating inflammation” (Forsyth Dental Infirmary for Children, priority 1979, dated 1981)

Key:
[1] = tested on: platelet aggregation; assay: Inhibition of arachidonate-induced platelet aggregation in platelet-rich plasma (aggregometer); assay type: cell-based; conditions: 37° C, 50 ul of 10 mM arachidonate, read-out: [I]50, concentration of inhibitor which prevented irreversible aggregation 50% of the time
Method: Inhibition of platelet aggregation by prostaglandin synthetase inhibitors is of potential value in treating thromboembolic disorders. Aggregation experiments were performed in a single-channel Chrono-log Platelet Aggregometer at 37° C. To 500 ul of platelet-rich plasm were added 2 ul of inhibitor solution and 50 ul of 10 mM arachidonate. The [I]50 value was defined as the concentration of inhibitor which prevented irreversible aggregation 50% of the time. The [I]50 of 2-(phenylmethoxy)phenol was 0.57 uM.

[2] = biological target: T1, prostaglandin synthetase (Ovis aries, UniProt P05979); assay: Inhibition of prostaglandin synthesis, sheep vesicular gland microsomal preparation, oxygen electrode; assay type: biochemical; conditions: sheep vesicular gland microsomes, pH 8.0, inhibitor added 1 minute before arachidonate; oxygen uptake; read-out: [I]50 Values for Inhibition of Prostaglandin Synthesis
T1 construct: sheep vesicular gland microsomal preparation; from tissue; host or cells: sheep vesicular gland microsomes
T1 sequence (P05979 25-600): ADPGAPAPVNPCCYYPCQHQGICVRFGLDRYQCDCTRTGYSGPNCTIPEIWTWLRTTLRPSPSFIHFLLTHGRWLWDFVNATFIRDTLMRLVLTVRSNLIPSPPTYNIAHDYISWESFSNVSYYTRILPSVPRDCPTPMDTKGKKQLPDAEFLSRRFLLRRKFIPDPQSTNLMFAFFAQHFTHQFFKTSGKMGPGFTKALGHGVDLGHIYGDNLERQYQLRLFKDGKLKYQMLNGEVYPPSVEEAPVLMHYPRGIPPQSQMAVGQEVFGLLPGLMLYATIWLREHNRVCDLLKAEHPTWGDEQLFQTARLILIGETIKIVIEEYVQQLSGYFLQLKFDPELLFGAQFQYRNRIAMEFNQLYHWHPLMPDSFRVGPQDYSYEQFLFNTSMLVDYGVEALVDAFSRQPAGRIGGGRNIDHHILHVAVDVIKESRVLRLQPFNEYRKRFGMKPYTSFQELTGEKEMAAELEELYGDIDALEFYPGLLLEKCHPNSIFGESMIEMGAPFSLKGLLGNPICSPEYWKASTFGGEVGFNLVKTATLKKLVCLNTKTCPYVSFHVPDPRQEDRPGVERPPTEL
Method: A commonly used model system for examination of prostaglandin synthetase inhibition is the sheep vesicular gland microsomal preparation (Wallach, D. P. and Daniels, E. G., Biochim. Biophys. Acta., 231: 445-457 (1971)). Prostaglandin synthetase activity was determined by following oxygen tension in a closed reaction chamber using a Clark-type oxygen electrode. For each assay, 2.9 ml of 0.1 M tris HCl buffer, pH 8.0, 10 ul of 0.2 M phenol, and 50 ul of enzyme suspension (2.5 mg microsomal preparation) were added to the reaction chamber. 10 ul of inhibitor in ethanol were added 1 minute prior to initiation of the reaction. The reaction was initiated by addition of 10 ul of 3.7 mM arachidonate solution. The concentration of an inhibitor that reduced prostaglandin synthesis by 50% ([I]50) was determined from plots of activity v. log concentration of inhibitor.

Row | Compound | IC50 [1] [µM] | IC50 [2] [µM]
1 | Oc1ccccc1OCc1ccccc1 [2-(phenylmethoxy)phenol] | 0.57 | 5.2
2 | Oc1ccccc1OCc1cccc(Cl)c1 [2-(3-chlorophenylmeythoxy)phenol, 2-(3-chlorophenylmethoxy)phenol] |  | 3.3
3 | Cc1ccccc1COc1ccccc1O [2-(2-methylphenylmethoxy)phenol] |  | 4.7
